# From publication PMC3263612, “Development of an Oral Form of Azacytidine: 2′3′5′Triacetyl-5-Azacytidine” (Chemotherapy Research and Practice, 2011)
# Experiments:
# [1] = Solubility at various pH; type: physicochemical
# Description: The solubility of TAC in comparison to ACT was evaluated at various pH. TAC and ACT were equally soluble at pH1 (40 mg/mL) and pH3 (25 mg/mL), while TAC was more soluble than ACT at pH5 (30 mg/mL versus 15 mg/mL) and pH7 (30 mg/mL versus 10 mg/mL). […] At pH 1, we observed a moderate hydrolysis of TAC (26%) to the mono- and diesters in the first 3 hours of incubation increasing to 60% after 6 hrs. However, after 24, 99% of TAC was hydrolyzed, including 46% to the parent compound, ACT.
# [2] = Drug stability at pH 1, 3, 5 and 7.4 (LC/MS/MS); type: physicochemical; conditions: throughout the pH range, maximum stability at pH 1; data not shown
# Description: ACT and TAC stabilities were determined after incubation at pH1 (2% Phosphoric acid), pH3 (0.1% Formic Acid), pH5 (K3PO4), and pH7.4 (Dulbecco's PBS). 100 ng of each compound was resuspended in 1.2 mL total volume, and 200 μL samples taken at 1, 3, 6, 29, and 48 hr. Each pH point was repeated 6 times in 2 dram vials with Teflon-lined screw caps at room temperature. Samples were extracted by solid-phase extraction using 100 ng decitabine as an internal standard and analyzed by tandem mass spectroscopy as described above.
# [3] = LogP determination, shake-flask water/octanol; type: physicochemical; conditions: un-ionized, read-out: experimental LogP
# Description: The OSIRIS Property Explorer software was used to generate initial cLogP values. […] The pH of the water was 2 units above the pKa of the compound, preventing ionization. The experiment was conducted using the shake-flask method, after allowing octanol and water to equilibrate for 24 hours at 25°C. The initial drug concentration in water was 0.2 mM. Tubes were rotated at a 45 degree angle for 10 minutes with a 3 second rotation. The test was performed in a constant environment of 20°C–25°C. Tubes were centrifuged at 1000 g for 10 minutes, and the octanol phase was extracted. The UV/Visible absorption spectrum was evaluated from 550 nm to 210 nm to determine the absorption maximum. The analyte concentration was determined and the LogP calculated: Log = log(concentration in octanol/concentration in water).
# [4] = Pharmacokinetics and metabolism of TAC in mice; type: in vivo, C57/BL6 mice; conditions: ACT 25 mg/kg i.v., analyte ACT
# Description: To monitor the in vivo absorption, distribution, and metabolism of TAC, a highly sensitive LC/MS/MS analytical method was developed that allows the quantitation of concentrations as low as 10 ng/mL of TAC and its metabolites. The samples were prepared by adding 200 μL of plasma to 400 μL of cold acetonitrile, vortexed, and centrifuged at 14,000 rpm for 10 minutes. The supernatant was placed into a 10 × 75 mm glass test tube and evaporated to 50 μL under nitrogen at 37°C. The residue was then diluted with 1 mL of 2% phosphoric acid and vortexed for 10 seconds at 3,000 rpm.
# Solid phase extraction was conducted using a Varian Bond Elute PLEXA PCX 1 mL columns placed on a vacuum manifold. Columns were activated by adding 1 mL of MeOH followed by 1 mL H2O and 1 mL of 2% phosphoric acid. All samples were allowed to drip by gravity flow. The extraction columns were then washed sequentially with 1 mL 2% phosphoric acid, 1 mL H2O, and 1 mL MeOH/AcCN (1/1) and eluted into a 10 × 75 mm glass test tube containing 50 μL of 25% formic acid in MeOH with 2 × 600 μL of 2% NH4OH in MeOH/AcCN (1/1). The liquid was then evaporated to dryness with nitrogen at 37°C, and 100 μL of mobile phase A was added and vortexed for 10 seconds at 3,000 rpm and transferred to LC autosampler vials at 4°C.
# HPLC separation was conducted on a reverse phase C18 column (Varian Pursuit C18, 3 micron particle size; 100 mm × 2.0 mm) using a Shimadzu SIL-HTc controller with dual LC-20AD pumps and DGU-20A3 degasser. The separation was achieved using a gradient of Mobile Phase A: 0.1% Formic Acid and Mobile Phase B: 0.1% Formic Acid, 90% MeOH with a flow rate of 400 μL/min at 40°C over 10 minutes. MS/MS fragmentation was performed on an Applied Biosystems API 3200 instrument with a Turbo V Ion Spray ion source and Positive ion polarity.
# To evaluate the in vivo pharmacokinetic properties of TAC, C57/BL6 female mice of 20 g body weight were dosed with 38 mg/kg TAC p.o. (equimolar dose to 25 mg/kg of ACT) or 25 mg/kg ACT i.v. via tail vein injection. TAC and ACT were solubilized in 1X PBS immediately before administration and dosed at 0.01 mL/g fasted body weight. Blood samples (two time points per animal, three animals per time point) were obtained via retro-orbital bleeding with Natelson pipettes at 0.5, 1, 2, 4, 8, and 24 hours after drug administration. The collected blood was then centrifuged for 4 minutes at 13,000 g. Plasma was immediately extracted with cold acetonitrile and stored at −80°C until LC/MS/MS analysis.
# Noncompartmental plasma pharmacokinetic parameters for TAC prodrug and ACT after oral TAC or i.v ACT administrations were estimated using the sparse sampling option in WinNonlin Software version 4.1 (Pharsight Corp., Mountain View, Calif, USA). Briefly, the WinNonlin sparse sampling option applies the linear trapezoidal rule for area under the concentration-time curve (AUC) calculations and generates a standard error for the mean AUC estimate that accounts for correlations in the data resulting from repeated sampling of individual mice. Parameters of interest included the AUC from time 0 to the last measurable concentration (AUClast), observed peak concentration after oral administration (Cmax), estimated peak concentration after i.v. administration (C0), mean residence time to the last measurable concentration (MRTlast), and the half-life of the terminal phase (T1/2). To assess the multiphasic decline in plasma concentrations, an alpha (T1/2α) half-life was also estimated using a log-linear regression of the mean ACT concentrations through 2 hours after dosing.
# [5] = tested on: P15 promoter methylation; assay: p15INK4B methylation status (EpiTect Methyl qPCR) in L1210 cells; type: cell-based, Mouse; conditions: 48 hours
# Description: Mouse leukemia cells (L1210) were purchased from ATCC. The published IC50 value for ACT (0.2 uM) was first confirmed using the Promega CellTiter MTS assay. […] Genomic DNA was isolated after 48 hours using the Sigma GenElute Genomic DNA Kit, including the RNase treatment step to ensure no RNA carryover. The methylation status of p15INK4B was determined using a predesigned primer set and the EpiTect Methyl qPCR Assays MethylScreen technology (Qiagen, Frederick, Md, USA).
# [6] = tested on: global DNA methylation; assay: Global methylation detection assay in mouse tissues; type: in vivo, C57BL6 mice; parameters: unit not given here; conditions: 5 days ACT 25 mg/kg or TAC 38 mg/kg p.o., dot blot
# Description: 24 hours following drug administration, snap-frozen mouse tissues were homogenized and genomic DNA isolated using Promega's Wizard Genomic DNA Purification Kit. 100 ng of EcoRI linearized genomic DNA was spotted onto PVDF membrane. The membrane was air-dried and repermeabilized according to manufacturer's instructions. Nonspecific binding was blocked using 5% milk in PBS-T and washed twice in PBS-T for 5 minutes. The membrane was incubated with primary antibody (1 : 1000 anti-5-methylcytosine in PBS-T, Calbiochem) for 1 hour then washed four times for five minutes each with PBS-T. The membrane was incubated with the HRP-conjugated secondary antibody for 1 hour and washed four times for five minutes each with PBS-T. Signal intensity following ECL detection was quantitated using KODAK Image Station software. Assay results were confirmed using EpiGentek's Methylamp Global DNA Methylation Quantification Kit per manufacturer's instructions.
# In an in vivo experiment designed to evaluate the effect of a prolonged administration of TAC on global methylation, TAC (38 mg/kg p.o.) or ACT (25 mg/kg i.p.) diluted in PBS was administered to C57BL6 mice every 24 hours for 5 consecutive days (four animals per group). […] The positive results in gut and spleen were confirmed using the EpiGentek's Methylamp Global DNA Methylation Quantification Kit.
# [7] = tested on: L1210 lymphocytic leukemia; assay: In vivo L1210 lymphocytic leukemia model; parameters: species or system BDF1 mice
# Description: The in vivo L1210 lymphocytic leukemia model in C57BL/6 × DBA/2 F1(BDF1) female mice was used to evaluate the in vivo antiproliferative effect of TAC. L1210 cells were carried in BDF1 mice by weekly i.p. (intraperitoneal) passages. Leukemia cells from ascites fluid were diluted appropriately in […] medium and injected i.p. (1×10^5 cells/0.1 mL/mouse) into recipient mice. A daily oral administration of TAC (38 mg/kg via oral gavage) or ACT (25 mg/kg administered i.p.) diluted in PBS was given to leukemic BDF1 mice starting 24 hours from the inoculation of L1210 cells for a total of 5 days. Compounds were prepared fresh daily. A group of untreated leukemic mice received sterile water for injections and served as controls.
# [8] = tested on: L1210 cells; parameters: method as in PMID 6083417; conditions: published value, confirmed by MTS assay; cited from earlier work
# [9] = oral film-coated formulation, 80 mg dose, cited from earlier work
# [10] = female, C57/BL6, mouse, plasma, iv
# [11] = tissue 24 hours after treatment
smiles,measurement,setting,value
"Nc1ncn([C@@H]2O[C@H](CO)[C@@H](O)[C@H]2O)c(=O)n1 [ACT, 5-azacitidine]",solubility,"[1]; pH 1, pH1",40 mg/mL
same,solubility,"[1]; pH 3, pH3",25 mg/mL
same,solubility,"[1]; pH 5, pH5",15 mg/mL
same,solubility,"[1]; pH 7, pH7",10 mg/mL
same,stability of azacitidine in solution,[2],significant degradation
same,logP,[3],-2.32
same,T1/2α,[4]; data through 2 hours,0.32 h
same,Cmax,[4]; [10],81.1 µM
same,MRT last,[4]; [10],1.1 h
same,C0,"[4]; female, C57/BL6, mouse, plasma, iv, estimated peak concentration",212 µM
same,half-life,"[4]; female, C57/BL6, mouse, plasma, iv, terminal phase",6.8 h
same,AUC(0-t),"[4]; female, C57/BL6, mouse, plasma, iv, mean (standard error)",126 µM·h
same,decrease of P15 promoter methylation,[5]; 0.1 uM ACT,39% (±3)
same,decrease of P15 promoter methylation,[5]; 10 uM ACT,49% (±17)
same,"densitometry of methylation level, Gut Average",[6]; four animals,29
same,"densitometry of methylation level, Spleen Average",[6]; four animals,50
same,"densitometry of methylation level, Gut.1",[6]; [11],37
same,"densitometry of methylation level, Gut.2",[6]; [11],14
same,"densitometry of methylation level, Gut.3",[6]; [11],34
same,"densitometry of methylation level, Gut.4",[6]; [11],33
same,"densitometry of methylation level, Spleen.1",[6]; [11],54
same,"densitometry of methylation level, Spleen.2",[6]; [11],71
same,"densitometry of methylation level, Spleen.3",[6]; [11],48
same,"densitometry of methylation level, Spleen.4",[6]; [11],29
same,survival,[7]; azacitidine 25 mg/kg i.p. (maximum tolerated dose) daily for 5 days,17 days
same,increased lifespan,[7]; azacitidine 25 mg/kg i.p. daily for 5 days,112%
same,weight reduction,"[7]; azacitidine 25 mg/kg i.p., L1210-bearing mice",16%
same,IC50,[8],200 nM
same,bioavailability,[9]; four human subjects,17.4%
same,mean plasma half-life,[9]; human,0.39 h
